# According to patent US20090203716A1, “Pyrimidine low molecular weight ligands for modulating hormone receptors” (The Government of the United States of America as …, priority 2006, published 2009):
# Entries after “also recorded” stand apart in the source; their conditions may differ.
# Experiments:
# human TSH receptor = target: T1, human TSH receptor (Homo sapiens, UniProt P16473); assay: intracellular cAMP accumulation, agonism at TSHR stably expressed in HEK EM 293 cells; format: cell-based; settings: for % Max. Resp. @ TSHR in μM: % of maximum response of TSHR to TSH (100 mU/ml), * estimated maximum response at 100 μM compound; for EC50: cAMP, HEK EM 293 cells, dose response 0-100 μM compound, ** estimated EC50, no plateau
# T1 construct: expressed in transfected cells
# Method: With reference to Table 1, exemplary disclosed compounds were evaluated against human TSH receptor and human LHCG receptor that were stably expressed in HEK 293 EM cells as previously described by Libert et al. (Biochem. Biophys. Res. Commun. 1989, 165, 1250-1255); and by Schulz et al. (Mol. Endocrinol. 1999, 13, 181-190). Cell surface expression of TSH receptor and LHCG receptor were determined via FACS analysis (Kleinau, G.; Jäschke, H.; Neumann, S.; Lättig, S.; Paschke, R.; Krause, G. J. Biol. Chem. 2004, 279, 51590-51600). Agonism of compounds 3-20 were determined via measurement of intracellular cyclic AMP accumulation. […] For example, […] certain compounds disclosed herein exerted no discernible effect on the FSH receptor.
# Cells were cultured for 48 h in 24-well plates before incubation for 1 h in serum-free DMEM containing 1 mM 3-isobutyl-1-methylxanthine (IBMX) (SIGMA) and bovine TSH (1.8 μM) (SIGMA) or human LH (1000 ng/ml) (Dr. A. Parlow, NIDDK National Hormone and Pituitary Program) or compounds 3-19 (0-100 μM) in a humidified 5% CO2 incubator. Following aspiration of the medium after incubation with compounds, cells were lysed using lysis buffer 1 of the cAMP Biotrak Enzymeimmunoassay (EIA) System (Amersham Biosciences). The cAMP content of the cell lysate was determined using the manufacturer's protocol. The efficacy of receptor activation by small molecule modulators is expressed as % of maximum response of LHCG receptor or TSH receptor to LH or TSH, respectively. The potency (EC50) was obtained from dose response curves (0-100 μM compound) by data analysis with GraphPad Prism 4 for Windows. With reference to FIG. 1, intracellular cAMP production was determined in response to 100 μM of each compound and is expressed as % of maximum response of TSHR/LHCGR to TSH (100 mU/ml)/LH (1000 ng/ml). The data are presented as mean±SEM of two independent experiments, each performed in duplicate.
# (§1) Transiently transfected cells were cultured for 48 hours before the cAMP assay. HEK-EM 293 cells stably expressing TSHR, LHCGR or FSHR were seeded into 24-well plates with a density of 2.2×10^5 cells/well 24 hours before the cAMP assay. After removal of growth medium, cells were incubated for 1 hour in HBSS (Cellgro) with 10 mM HEPES (Cellgro) containing 1 mM 3-isobutyl-1-methylxanthine (IBMX) (Sigma) and the ligand of interest in a humidified 5% CO2 incubator at 37° C. The intracellular cAMP content was determined with the cAMP Biotrak Enzymeimmunoassay (EIA) System (GE Healthcare). Data were analyzed using GraphPad Prism 4 for Windows. Receptor expression was measured as described in Jaschke et al., J Biol Chem 281:9841-9844.
# human LHCG receptor = target: T2, human LHCG receptor (Homo sapiens, UniProt P22888); assay: intracellular cAMP accumulation, agonism at LHCGR stably expressed in HEK EM 293 cells; format: cell-based; settings: for % Max. Resp. @ LHCGR in μM: % of maximum response of LHCGR to LH (1000 ng/ml); for EC50: read-out: EC50 (LHCGR) in μM [95% C.I.], cAMP, HEK EM 293 cells, dose response 0-100 μM compound
# T2 construct: expressed in transfected cells
# Method: With reference to Table 1, exemplary disclosed compounds were evaluated against human TSH receptor and human LHCG receptor that were stably expressed in HEK 293 EM cells as previously described by Libert et al. (Biochem. Biophys. Res. Commun. 1989, 165, 1250-1255); and by Schulz et al. (Mol. Endocrinol. 1999, 13, 181-190). Cell surface expression of TSH receptor and LHCG receptor were determined via FACS analysis (Kleinau, G.; Jäschke, H.; Neumann, S.; Lättig, S.; Paschke, R.; Krause, G. J. Biol. Chem. 2004, 279, 51590-51600).
# Following aspiration of the medium after incubation with compounds, cells were lysed using lysis buffer 1 of the cAMP Biotrak Enzymeimmunoassay (EIA) System (Amersham Biosciences). The cAMP content of the cell lysate was determined using the manufacturer's protocol. […] The potency (EC50) was obtained from dose response curves (0-100 μM compound) by data analysis with GraphPad Prism 4 for Windows. […] The data are presented as mean±SEM of two independent experiments, each performed in duplicate.
# as §1
# TSHR = TSHR (Homo sapiens, UniProt P16473); assay: inhibition of TSH-mediated cAMP response in HEK-EM 293 cells stably expressing TSHR; format: cell-based; design: expressed in transfected cells
# Method: as §1
# The TSH-mediated cAMP response of TSHR was inhibited by a maximum of 70.8±5.5% at 30 μM compound 52. […] Compound 52 has no activity at FSHR.
# To exclude the possibility that compound 52 might be acting independently of TSHR by building aggregates with TSH, thereby inhibiting the TSH-induced response, tests were conducted for a possible aggregation between these two ligands. Compound 52 and TSH were preincubated for up to 15 minutes before addition to HEK-EM 293 cells stably expressing TSHR. […] There was no difference in the antagonistic effect whether TSH and compound 52 were preincubated together or not (data not shown) thereby excluding the possibility that its effect was caused by aggregation with TSH.
# solubility = format: physicochemical; settings: compared to compound 52
# TSHR, sequence (P16473 21-764): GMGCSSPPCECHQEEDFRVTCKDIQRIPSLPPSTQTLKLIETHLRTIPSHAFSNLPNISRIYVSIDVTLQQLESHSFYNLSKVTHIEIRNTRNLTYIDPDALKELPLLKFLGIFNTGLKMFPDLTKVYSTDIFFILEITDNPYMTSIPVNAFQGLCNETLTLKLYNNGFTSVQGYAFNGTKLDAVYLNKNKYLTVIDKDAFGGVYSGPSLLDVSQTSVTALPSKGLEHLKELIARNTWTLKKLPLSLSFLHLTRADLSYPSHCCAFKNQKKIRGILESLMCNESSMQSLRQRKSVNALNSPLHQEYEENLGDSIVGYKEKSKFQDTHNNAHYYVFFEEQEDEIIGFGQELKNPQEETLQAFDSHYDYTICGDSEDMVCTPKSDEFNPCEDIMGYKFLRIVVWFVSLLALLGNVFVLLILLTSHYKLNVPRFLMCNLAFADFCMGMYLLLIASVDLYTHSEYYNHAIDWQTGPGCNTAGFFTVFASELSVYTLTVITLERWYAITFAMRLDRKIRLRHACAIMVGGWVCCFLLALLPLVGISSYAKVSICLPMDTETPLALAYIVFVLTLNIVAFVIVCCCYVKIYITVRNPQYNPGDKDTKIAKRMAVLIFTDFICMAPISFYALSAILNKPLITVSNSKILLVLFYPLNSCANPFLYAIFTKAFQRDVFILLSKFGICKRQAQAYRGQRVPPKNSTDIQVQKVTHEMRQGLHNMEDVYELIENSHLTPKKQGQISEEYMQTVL
# T1 sequence (P16473 21-764): as above
# T2 sequence (P22888 27-699): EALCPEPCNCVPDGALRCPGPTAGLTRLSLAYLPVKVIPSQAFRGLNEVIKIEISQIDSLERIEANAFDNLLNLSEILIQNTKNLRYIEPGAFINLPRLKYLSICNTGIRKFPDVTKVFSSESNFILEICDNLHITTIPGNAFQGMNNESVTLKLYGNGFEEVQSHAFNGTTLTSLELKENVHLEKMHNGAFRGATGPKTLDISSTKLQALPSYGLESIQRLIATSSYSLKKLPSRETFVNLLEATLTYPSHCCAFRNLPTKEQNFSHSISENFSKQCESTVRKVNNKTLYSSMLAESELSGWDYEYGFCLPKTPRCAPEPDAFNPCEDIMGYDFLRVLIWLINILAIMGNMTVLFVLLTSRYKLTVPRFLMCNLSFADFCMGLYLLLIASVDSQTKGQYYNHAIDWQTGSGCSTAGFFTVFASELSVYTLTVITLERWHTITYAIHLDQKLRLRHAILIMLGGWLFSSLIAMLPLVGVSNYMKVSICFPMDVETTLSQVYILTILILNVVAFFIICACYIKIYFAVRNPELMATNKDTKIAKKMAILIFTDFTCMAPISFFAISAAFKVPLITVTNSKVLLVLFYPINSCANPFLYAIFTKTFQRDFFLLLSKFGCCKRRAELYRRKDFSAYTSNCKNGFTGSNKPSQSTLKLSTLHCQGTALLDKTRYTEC
% Max. Resp. @ TSHR in μM (human TSH receptor),% Max. Resp. @ LHCGR in μM (human LHCG receptor) [%],EC50 (human TSH receptor) [nM],EC50 (human LHCG receptor) [µM],solubility (solubility),Compound,antagonistic activity at TSHR in cAMP assay (TSHR)
1.5 ± 0.2%,4.2 ± 2.2,–,–,–,"CCOC(=O)c1sc2nc(SC)nc(-c3cccc(OC)c3)c2c1N [Compound 4, ethyl-5-amino-4-(3-methoxyphenyl)-2-(methylthio)thieno[2,3-d]pyrimidine-6-carboxylate]",–
>30.3* %,23.8 ± 3.3,11900,1.1,–,"COc1cccc(-c2nc(SC)nc3sc(C(=O)OC(C)(C)C)c(N)c23)c1 [Compound 5, tert-butyl-5-amino-4-(3-methoxyphenyl)-2-(methylthio)thieno[2,3-d]pyrimidine-6-carboxylate]",–
2.3 ± 0.4%,26.9 ± 4.8,–,–,–,"CCNC(=O)c1sc2nc(SC)nc(-c3cccc(OC)c3)c2c1N [Compound 6, 5-amino-N-(ethyl)-4-(3-methoxyphenyl)-2-(methylthio)thieno[2,3-d]pyrimidine-6-carboxamide]",–
3.6 ± 1.9%,47.8 ± 2.8,–,0.8,–,"COc1cccc(-c2nc(SC)nc3sc(C(=O)N(C)C(C)(C)C)c(N)c23)c1 [Compound 7, N-tert-butyl-5-amino-4-(3-methoxyphenyl)-N-methyl-2-(methylthio)thieno[2,3-d]pyrimidine-6-carboxamide]",–
6.1 ± 0.8%,8.5 ± 3.6,–,–,–,"COc1cccc(-c2nc(SC)nc3sc(C(=O)NN)c(N)c23)c1 [Compound 8, 5-amino-4-(3-methoxyphenyl)-2-(methylthio)thieno[2,3-d]pyrimidine-6-carbohydrazide]",–
4.0 ± 0.1%,11.0 ± 1.5,–,–,–,"COc1cccc(-c2nc(SC)nc3sc(C(=O)NN(C)C)c(N)c23)c1 [Compound 9, 5-amino-4-(3-methoxyphenyl)-N′N′-dimethyl-2-(methylthio)thieno[2,3-d]pyrimidine-6-carbohydrazide]",–
6.4 ± 0.6%,6.0 ± 3.1,–,–,–,"COc1cccc(-c2nc(SC)nc3sc(C(=O)NNC(C)(C)C)c(N)c23)c1 [Compound 10, N′-tert-butyl-5-amino-4-(3-methoxyphenyl)-2-(methylthio)thieno[2,3-d]pyrimidine-6-carbohydrazide]",–
1.9 ± 0.4%,2.4 ± 0.5,–,–,–,"COc1cccc(-c2nc(SC)nc3sc(C(=O)NNC(=O)OC(C)(C)C)c(N)c23)c1 [Compound 11, N′-Boc-5-amino-4-(3-methoxyphenyl)-2-(methylthio)thieno[2,3-d]pyrimidine-6-carbohydrazide]",–
2.9 ± 0.5%,20.5 ± 2.7,–,–,–,"COc1cccc(-c2nc(SC)nc3sc(C(=O)NCCO)c(N)c23)c1 [Compound 12, 5-amino-4-(3-methoxyphenyl)-N-(2-hydroxyethyl)-2-(methylthio)thieno[2,3-d]pyrimidine-6-carboxamide]",–
3.6 ± 0.6%,20.3 ± 2.1,–,–,–,"COc1cccc(-c2nc(SC)nc3sc(C(=O)NCC#N)c(N)c23)c1 [Compound 13, 5-amino-N-(cyanomethyl)-4-(3-methoxyphenyl)-2-(methylthio)thieno[2,3-d]pyrimidine-6-carboxamide]",–
3.0 ± 1.2%,7.8 ± 2.7,–,–,–,"COc1cccc(-c2nc(SC)nc3sc(C(=O)NCc4ccccc4)c(N)c23)c1 [Compound 14, 5-amino-N-benzyl-4-(3-methoxyphenyl)-2-(methylthio)thieno[2,3-d]pyrimidine-6-carboxamide]",–
4.3 ± 0.4%,25.6 ± 5.4,–,–,–,"COc1cccc(-c2nc(SC)nc3sc(C(=O)NCCc4ccccc4)c(N)c23)c1 [Compound 15, 5-amino-4-(3-methoxyphenyl)-2-(methylthio)-N-phenethylthieno[2,3-d]pyrimidine-6-carboxamide]",–
3.0 ± 0.9%,50.1 ± 3.6,–,0.8,–,"COc1cccc(-c2nc(SC)nc3sc(C(=O)NC(C)(C)C)c(N)c23)c1OC [Compound 16, N-tert-butyl-5-amino-4-(2,3-dimethoxyphenyl)-2-(methylthio)thieno[2,3-d]pyrimidine-6-carboxamide]",–
>24.0* %,46.3 ± 6.6,11500,1.5,–,"COc1cccc(-c2nc(SC)nc3sc(C(=O)NC(C)(C)C)c(N)c23)c1F [Compound 17, N-tert-butyl-5-amino-4-(2-fluoro-3-methoxyphenyl)-2-(methylthio)thieno[2,3-d]pyrimidine-6-carboxamide]",–
11.2 ± 1.0%,63.9 ± 14.2,–,1.9,–,"CSc1nc(-c2cccc(O)c2)c2c(N)c(C(=O)NC(C)(C)C)sc2n1 [Compound 19, N-tert-butyl-5-amino-4-(3-hydroxyphenyl)-2-(methylthio)thieno[2,3-d]pyrimidine-6-carboxamide]",–
–,–,–,–,–,CSc1nc(-c2ccc(/C=C/CS(C)(=O)=O)cc2)c2c(N)c(C(=O)NC(C)(C)C)sc2n1 [Compound 52/1],no antagonistic activity
–,–,–,–,improved solubility,C[S+]([O-])c1nc(-c2ccc(/C=C/CS(C)(=O)=O)cc2)c2c(N)c(C(=O)NC(C)(C)C)sc2n1 (centres unmarked) [Compound 52/2],antagonist activity similar to compound 52; also recorded: antagonistic activity
–,–,–,–,improved solubility,C[S+]([O-])C/C=C/c1ccc(-c2nc([S+](C)[O-])nc3sc(C(=O)NC(C)(C)C)c(N)c23)cc1 (centres unmarked) [Compound 52/3],antagonist activity similar to compound 52; also recorded: antagonistic activity

Compound,% Max. Resp. @ TSHR in μM (human TSH receptor),% Max. Resp. @ LHCGR in μM (human LHCG receptor) [%],EC50 (human TSH receptor) [nM],EC50 (human LHCG receptor) [µM],solubility (solubility),antagonistic activity at TSHR in cAMP assay (TSHR)
"CSc1nc(-c2cccc(F)c2)c2c(N)c(C(=O)NC(C)(C)C)sc2n1 [Compound 18, N-tert-butyl-5-amino-4-(3-fluorophenyl)-2-(methylthio)thieno[2,3-d]pyrimidine-6-carboxamide]",8.1 ± 1.7%,–,–,1.2,–,–
